Test results as given in patent US9096663B2, “Compositions and methods for treating conditions related to ephrin signaling with cupredoxins and mutants thereof” (The Board of Trustees of the University of Illinois, priority 2001, dated 2015).

Tests used:
Format in all cases: cell-based, human
[1] = tested on: Astrocytoma CCF-STTG1; assay: MTT assay, astrocytoma CCF-STTG1; settings: 75 μM, 24 h, 37° C.
Experimental: (§1) Cytotoxicity effects were determined by MTT assay. […] Percent cytotoxicity is expressed as percentage of ceil death as compared to that of untreated control (0% cytotoxicity).
(§2) Approximately 2×10^4 cells per well were seeded into 96-well culture plates in 100 μl of RPMI 1640 medium. […] After 24 or 48 h treatment, 10 μl of 5 mg/ml MTT solution was added to the culture and incubated for 1 h at 37° C. The MTT reaction was terminated by the addition of 40 mM HCl in isopropanol. The MTT formazan formed was measured spectrophotometrically as described earlier (Mosmann, 1983). Untreated control cells were compared to treated cells for determining viability and therefore a measure of cytotoxicity.

[2] = tested on: Glioblastoma LN-229; assay: MTT assay, glioblastoma LN-229; settings: 24 h; for induction of cell death, LN-229: 75 μM, 37° C.
Experimental: as §1, §2

[3] = tested on: MCF-7 breast cancer cells; assay: MCF-7 cell growth, cells counted in coulter counter
Experimental: The extent of cell growth inhibition was about 25% at 5 ug/ml of the 18-mer synthetic peptide as compared to untreated control.

Sequence	induction of cell death, CCF-STTG1 [1]	induction of cell death, LN-229 [2]	inhibition of MCF-7 cell growth vs untreated control ([3]; 5 ug/ml)	inhibition of MCF-7 cell growth vs untreated cells ([3]; 50 ug/ml, 48 to 72 hours) [%]	dose dependence of cytotoxicity, glioblastoma LN-229 ([2]; 10, 25, 50, 75, 100 μM)
VRIKLSTPGVYGVYCE [Plc 70-84]	showed induction of cell death	showed induction of cell death			
TFDVSKLKEGEQYMFFCT [Azu 96-113]	showed induction of cell death	showed induction of cell death	about 25%	50	increasing peptide concentrations led to increasing cytotoxicity
